In paper PMC10303384, “The Effect of Terbinafine and Its Ionic Salts on Certain Fungal Plant Pathogens” (Molecules, 2023):
Values after ≈ are worked out from the molar mass of the structure shown. Values joined by “and” are separate entries in the source; they are usually repeats but may differ in a detail not shown here. Equal values may be shown once. Read-outs that look alike come from different tables or passages of the source.

Columns and labels:
[1] = system: Rhizoctonia solani (R. solani); test: microbe, parasite or virus in culture; assay type: cell-based
[2] = system: Botrytis cinerea (B. cinerea); test: In vitro fungicidal activity, mycelial (hyphae) growth inhibition on PDA; assay type: cell-based
[3] = system: Phomopsis capsici (P. capsica); test: as above; assay type: cell-based
[4] = system: Alternaria solani (A. solani); test: as above; assay type: cell-based
[5] = system: Fusarium graminearum (F. graminearum); test: microbe, parasite or virus in culture; assay type: cell-based
[6] = Solubility classification in representative solvents (Vogel protocol); assay type: physicochemical; details: thermodynamic from solid, 25 °C
Description: This investigation details how to determine the solubility of terbinafine and its salts, guided by the experimental protocol in Vogel’s Textbook of Practical Organic Chemistry. Based on the Snyder polarity index values of the representative solvents, each solvent was tested for its ability to dissolve the target analytes. The solubility data was classified into three categories based on the observed extent of dissolution. […] The experimental procedures were performed at 25 °C and under ambient pressure.

Valsa malicola (V. mali) = test: In vitro fungicidal activity, mycelial (hyphae) growth inhibition on PDA; assay type: cell-based
[7] = system: Pythium aphanidermatum (P. aphanidermatum); test: as above; assay type: cell-based
[8] = Surface tension of saturated aqueous solutions, Du Noüy ring method; details: 25 °C
Description: This method involved adjusting the stage positioning of the solvent container such that a platinum ring could be immersed below the liquid interface or pulled through the meniscus. […] The maximum force was recorded as the surface tension of the solvent. To ensure accuracy, the platinum ring was thoroughly cleaned between each measurement through rinsing with double-distilled water and wiping it dry. The surface tension determination was performed in quadruplicate.

[9] = Critical micelle concentration by electrical conductivity; details: 25 °C
Description: The critical micelle concentrations (CMCs) of the TISs were measured using electrical conductivity at 25 °C, as shown in Figure S16.
The critical micelle concentrations (CMCs) of all the TISs were determined using an electrical conductivity meter (Leica Desktop Conductivity Meter DDSJ-308F, Shanghai Oustor Industrial Co., Ltd. Shanghai, China).

[10] = system: Pyricularia oryzae (P. oryzae); test: microbe, parasite or virus in culture; assay type: cell-based; details: for EC50: P. oryzae
[11] = Solubility of saturated solutions by HPLC at 25 °C; assay type: physicochemical
Text: The filtrate was then passed through a 0.22 μm nylon membrane filter and subjected to HPLC analysis. Based on Wang’s report about the chromatographic parameters, modifications to the mobile phase ratio were made. The replicability of the results was ensured by performing each measurement in triplicate.

[12] = system: B. cinerea on cherry tomatoes; test: In vivo antifungal bioassay on cherry tomatoes; parameters: species or system Botrytis cinerea; details: 20 mg/L
[13] = 50 mg/L, mean ± SD of three replicates
[14] = Fusarium graminearum, F. graminearum
[15] = DMSO, organic solvent or mixture, test amount 0.1 g, Snyder polarity index 6.5, read-out: Solubility in DMSO
[16] = acetone, organic solvent or mixture, test amount 0.1 g, Snyder polarity index 5.1, read-out: Solubility in Acetone
[17] = acetonitrile, organic solvent or mixture, test amount 0.1 g, Snyder polarity index 6.2, read-out: Solubility in Acetonitrile
[18] = chloroform, organic solvent or mixture, test amount 0.1 g, Snyder polarity index 4.1, read-out: Solubility in Chloroform
[19] = ethyl acetate, organic solvent or mixture, test amount 0.1 g, Snyder polarity index 4.3, read-out: Solubility in Ethyl acetate
[20] = isopropanol, organic solvent or mixture, test amount 0.1 g, read-out: Solubility in Isopropanol
[21] = methanol, organic solvent or mixture, test amount 0.1 g, Snyder polarity index 6.6, read-out: Solubility in Methanol
[22] = n-hexane, organic solvent or mixture, test amount 0.1 g, Snyder polarity index 0.0, read-out: Solubility in n-Hexane
[23] = toluene, organic solvent or mixture, test amount 0.1 g, Snyder polarity index 2.3, read-out: Solubility in Toluene
[24] = water, test amount 0.1 g, Snyder polarity index 9.0, read-out: Solubility in Water

## CN(C/C=C/C#CC(C)(C)C)Cc1cccc2ccccc12.O=C(O)/C=C/C(=O)O [TIS 4, (E)-N,6,6-trimethyl-N-(naphthalen-1-ylmethyl)hept-2-en-4-yn-1-aminium (E)-3-carboxyacrylate]
[1]; 50 mg/L
  Inhibition Rate at 50 mg/L (%) R. s: 85.82 ± 1.51%
[1]; Rhizoctonia solani
  EC50: 2.3 µg/mL
[1]; read-out: EC50 (μmol/L)
  EC50: 5.65 µmol/L
[2]; 50 mg/L
  Inhibition Rate at 50 mg/L (%) B. c: 100 ± 0%
[2]; Botrytis cinerea
  EC50: 0.15 mg/L
[2]; read-out: EC50 (μmol/L)
  EC50: 0.36 µmol/L
[3]
  Inhibition Rate at 50 mg/L (%) P. c: 47.64 ± 1.58%
[4]; 50 mg/L
  Inhibition Rate at 50 mg/L (%) A. s: 100 ± 0%
[4]; Alternaria solani
  EC50: 0.11 mg/L
[4]; read-out: EC50 (μmol/L)
  EC50: 0.28 µmol/L
[5]; [13]
  Inhibition Rate at 50 mg/L (%) F. g: 100 ± 0%
[5]; F. graminearum, from EC50
  higher bioactivity compared to terbinafine: 16%
[5]; [14]
  EC50: 0.09 µg/mL
[5]; read-out: EC50 (μmol/L), F. graminearum
  EC50: 0.21 µmol/L
[6]; [15]
  solubility: > 100 mg/mL
[6]; [16]
  solubility: < 33.3 mg/mL
[6]; [17]
  solubility: < 33.3 mg/mL
[6]; [18]
  solubility: < 33.3 mg/mL
[6]; [19]
  solubility: < 33.3 mg/mL
[6]; [20]
  solubility: < 33.3 mg/mL
[6]; [21]
  solubility: < 33.3 mg/mL
[6]; [22]
  solubility: < 33.3 mg/mL
[6]; [23]
  solubility: < 33.3 mg/mL
[6]; [24]
  solubility: < 33.3 mg/mL
Valsa malicola (V. mali)
  EC50: 1.88 mg/L
Valsa malicola (V. mali); 50 mg/L
  Inhibition Rate at 50 mg/L (%) V. m: 100 ± 0%
Valsa malicola (V. mali); read-out: EC50 (μmol/L)
  EC50: 4.6 µmol/L
[7]
  Inhibition Rate at 50 mg/L (%) P. a: 65.23 ± 0.47%
[8]
  surface tension of the saturated aqueous solution: 55.68 mN·m^−1
[9]
  critical micelle concentration (CMC): 0.31 mmol/L
[10]; [13]
  Inhibition Rate at 50 mg/L (%) P. o: 98.7 ± 0.54%
[10]; Pyricularia oryzae
  EC50: 0.75 µg/mL
[10]; read-out: EC50 (μmol/L)
  EC50: 1.84 µmol/L
[11]; acetone, organic solvent or mixture, thermodynamic from solid, Table S1, read-out: Solubility, Acetone
  solubility at 15 min: 2070 µM
[11]; acetonitrile, organic solvent or mixture, thermodynamic from solid, Table S1, read-out: Solubility, Acetonitrile
  solubility at 15 min: 301 µM
[11]; chloroform, organic solvent or mixture, thermodynamic from solid, Table S1, read-out: Solubility, Chloroform
  solubility at 15 min: 321 µM
[11]; ethyl acetate, organic solvent or mixture, thermodynamic from solid, Table S1, read-out: Solubility, Ethyl acetate
  solubility at 15 min: 880 µM
[11]; isopropanol, organic solvent or mixture, thermodynamic from solid, Table S1, read-out: Solubility, Isopropanol
  solubility at 15 min: 1920 µM
[11]; methanol, organic solvent or mixture, thermodynamic from solid, Table S1, read-out: Solubility, Methanol
  solubility at 15 min: 7750 µM
[11]; n-hexane, organic solvent or mixture, thermodynamic from solid, Table S1, read-out: Solubility, n-Hexane
  solubility at 15 min: 70.9 µM
[11]; toluene, organic solvent or mixture, thermodynamic from solid, Table S1, read-out: Solubility, Toluene
  solubility at 15 min: 0.261 µM
[11]; water, read-out: water solubility
  solubility at 15 min: 1920 µM
[11]; water, thermodynamic from solid, Table S1, read-out: Solubility, Water
  solubility at 15 min: 1920 µM

## CN(C/C=C/C#CC(C)(C)C)Cc1cccc2ccccc12 [Terbinafine]
[1]; Rhizoctonia solani
  EC50: 1.73 µg/mL and 5.94 µM
[1]; Rhizoctonia solani, 50 mg/L, read-out: Inhibition Rate at 50 mg/L (%) R. s
  inhibition at 50 µg/mL: 84.21 ± 0.53%
[2]; Botrytis cinerea, 50 mg/L, mean ± SD of three replicates, read-out: Inhibition Rate at 50 mg/L (%) B. c
  inhibition at 50 µg/mL: 100%
[2]; Botrytis cinerea, B. cinerea, read-out: EC50 (mg/L)
  EC50: 0.1 mg/L
[2]; Botrytis cinerea, B. cinerea, read-out: EC50 (μmol/L)
  EC50: 0.34 µmol/L
[3]; Diaporthe capsici, 50 mg/L, mean ± SD of three replicates, read-out: Inhibition Rate at 50 mg/L (%) P. c
  inhibition at 50 µg/mL: 48.75 ± 0.45%
[12]; 4 days after treatment
  Diameter of infection (cm) 4 days: 0.89 cm
[12]; 7 days after treatment
  Diameter of infection (cm) 7 days: 1.07 cm
[4]; Alternaria solani, 50 mg/L, mean ± SD of three replicates, read-out: Inhibition Rate at 50 mg/L (%) A. s
  inhibition at 50 µg/mL: 100%
[4]; Alternaria solani, A. solani, read-out: EC50 (mg/L)
  EC50: 0.07 mg/L
[4]; Alternaria solani, A. solani, read-out: EC50 (μmol/L)
  EC50: 0.25 µmol/L
[5]; [14]
  EC50: 0.07 µg/mL and 250 nM
[5]; Fusarium graminearum, read-out: Inhibition Rate at 50 mg/L (%) F. g
  inhibition at 50 µg/mL: 100%
[6]; [15]
  solubility: > 100 mg/mL
[6]; [16]
  solubility: > 100 mg/mL
[6]; [17]
  solubility: > 100 mg/mL
[6]; [18]
  solubility: > 100 mg/mL
[6]; [19]
  solubility: > 100 mg/mL
[6]; [20]
  solubility: > 100 mg/mL
[6]; [21]
  solubility: > 100 mg/mL
[6]; [22]
  solubility: > 100 mg/mL
[6]; [23]
  solubility: > 100 mg/mL
[6]; various polar solvents, organic solvent or mixture, read-out: solubility in various polar solvents
  solubility: 100 mg/mL (≈ 343 mM)
[6]; [24]
  solubility: < 33.3 mg/mL
Valsa malicola (V. mali); Cytospora schulzeri, 50 mg/L, mean ± SD of three replicates, read-out: Inhibition Rate at 50 mg/L (%) V. m
  inhibition at 50 µg/mL: 100%
Valsa malicola (V. mali); V. mali, read-out: EC50 (mg/L)
  EC50: 1.25 mg/L
Valsa malicola (V. mali); V. mali, read-out: EC50 (μmol/L)
  EC50: 4.28 µmol/L
[7]; Pythium aphanidermatum, 50 mg/L, mean ± SD of three replicates, read-out: Inhibition Rate at 50 mg/L (%) P. a
  inhibition at 50 µg/mL: 68.2 ± 1.87%
[8]
  surface tension of the saturated aqueous solution: 59.92 mN·m^−1
[10]; Pyricularia oryzae
  EC50: 0.28 µg/mL and 950 nM
[10]; Pyricularia oryzae, read-out: Inhibition Rate at 50 mg/L (%) P. o, 50 mg/L, mean ± SD of three replicates
  inhibition at 50 µg/mL: 99.64 ± 0.36%
[11]; water, thermodynamic from solid, read-out: water solubility
  solubility at 15 min: 5.22 µM (≈ 1.52 µg/mL)
